ChEMBL document CHEMBL3124912, “Combination of amino acid/dipeptide with nitric oxide donating oleanolic acid derivatives as PepT1 targeting antitumor prodrugs” (J Med Chem, 2014)
≈ marks a conversion by molar mass, not a printed value. Calls of active or inactive are those of the source. The calls are words filed in the database; no cut-off is given here.

Key:
PepT1 [1] = assay: Effective permeability in Sprague-Dawley rat single-pass intestinal perfusion model assessed as PepT1-mediated drug transport at 0.1 mM administered in MES buffer at pH 6 via PVC tubing after 20 to 120 mins by HPLC analysis; format: ADME, organism-based; conditions: other: intestinal perfusion via PVC tubing, read-out: Peff
PepT1 [2] = assay: Effective permeability in Sprague-Dawley rat single-pass intestinal perfusion model assessed as PepT1-mediated drug transport at 0.1 mM administered in HEPES buffer at pH 7.4 via PVC tubing after 20 to 120 mins by HPLC analysis; format: ADME, organism-based; conditions: other: intestinal perfusion via PVC tubing, read-out: Peff
[3] = Aqueous equilibrium solubility of the compound after 24 hrs by HPLC analysis; format: physicochemical; conditions: water (aqueous)
HepG2 = assay: Cytotoxicity against human HepG2 cells after 48 hrs by CCK-8 assay; format: functional, cell-based; conditions: HepG2, 48 h
MCF7 = assay: Cytotoxicity against human MCF7 cells after 48 hrs by CCK-8 assay; format: functional, cell-based; conditions: MCF7, 48 h
A549 [4] = assay: Cytotoxicity against human A549 cells after 48 hrs by CCK-8 assay; format: functional, cell-based; conditions: A549, 48 h
HCT-116 = assay: Cytotoxicity against human HCT116 cells after 48 hrs by CCK-8 assay; format: functional, cell-based; conditions: HCT-116, 48 h
[5] = Cytotoxicity against human LO2 cells at 0.02 to 10 uM after 48 hrs by CCK-8 assay; format: cell-based; conditions: l02, 48 h
L02 = assay: Induction of human LO2 cell growth at 0.02 to 10 uM after 48 hrs by CCK-8 assay; format: functional, cell-based
PepT1 [6] = assay: Effective permeability in Sprague-Dawley rat single-pass intestinal perfusion model assessed as PepT1-mediated drug transport at 0.1 mM administered in MES buffer at pH 6 via PVC tubing after 20 to 120 mins by HPLC analysis in presence of Gly-Sar; format: ADME, organism-based; conditions: other: intestinal perfusion via PVC tubing, pH 6, with Gly-Sar (concentration not stated), read-out: Peff
[7] = Chemical stability in HEPES buffer assessed as compound remaining at 37 degC up to 2 hrs by HPLC analysis; format: physicochemical; conditions: read-out: Stability
[8] = Chemical stability in MES buffer assessed as compound remaining at 37 degC up to 2 hrs by HPLC analysis; format: physicochemical; conditions: read-out: Stability
[9] = Induction of nitric oxide release in PBS at 100 uM at pH 7.4 after 24 hrs by Griess method in presence of rat serum; conditions: pH 7.4, 24 h
[10] = Induction of nitric oxide release in PBS at 100 uM at pH 7.4 after 24 hrs by Griess method; conditions: buffer, pH 7.4, 24 h
[11] = Cytotoxicity against human LO2 cells assessed as cell survival at 50 uM after 48 hrs by CCK-8 assay relative to control; format: cell-based, L02; conditions: read-out: Survival
A549 [12] = assay: Ratio of cisplatin IC50 to compound IC50 for human A549 cells; format: functional

CC1(C)CC[C@]2(C(=O)O)CC[C@]3(C)C(=CC[C@@H]4[C@@]5(C)CC[C@H](O)C(C)(C)[C@@H]5CC[C@]43C)[C@@H]2C1 [OLEANOLIC_ACID]
Papp at 100 µM (PepT1 [1]): 31.6 ×10⁻⁶ cm/s | Papp at 100 µM (PepT1 [2]): 31.7 ×10⁻⁶ cm/s | solubility thermodynamic at 24 h [3]: 0.012 µg/mL (≈ 0.0263 µM) | IC50 (HepG2): 51.4 µM | IC50 (MCF7): > 150 µM | IC50 (A549 [4]): 81.4 µM | IC50 (HCT-116): > 150 µM | Activity [5]: Non-toxic | Activity (L02): Active

CC(C)[C@H](N)C(=O)OCCOC(=O)[C@]12CCC(C)(C)C[C@H]1C1=CC[C@@H]3[C@@]4(C)CC[C@H](OC(=O)CO[N+](=O)[O-])C(C)(C)[C@@H]4CC[C@@]3(C)[C@]1(C)CC2.Cl
Papp at 100 µM (PepT1 [6]): 25.3 ×10⁻⁶ cm/s | Papp at 100 µM (PepT1 [1]): 33.2 ×10⁻⁶ cm/s | Papp at 100 µM (PepT1 [2]): 20.3 ×10⁻⁶ cm/s | remaining at 2 h [7]: 98.5% | remaining at 2 h [8]: 100% | solubility thermodynamic at 24 h [3]: 18.6 µg/mL | Activity [9]: Active | Activity [10]: 6.7% | viability at 48 h, 50 µM [11]: 60% | IC50 (HepG2): 10.7 µM | IC50 (MCF7): 25.5 µM | IC50 (A549 [4]): 7.5 µM | IC50 (HCT-116): 24.9 µM | Ratio IC50 (A549 [12]): 2 | Activity [5]: Non-toxic | Activity (L02): Active

CC(C)[C@H](NC(=O)[C@H](C)N)C(=O)OCCOC(=O)[C@]12CCC(C)(C)C[C@H]1C1=CC[C@@H]3[C@@]4(C)CC[C@H](OC(=O)CO[N+](=O)[O-])C(C)(C)[C@@H]4CC[C@@]3(C)[C@]1(C)CC2
IC50 (HepG2): 22.1 µM | IC50 (MCF7): 83.2 µM | IC50 (A549 [4]): 9.6 µM | IC50 (HCT-116): 24.7 µM

CC(C)[C@H](N)C(=O)OCCOC(=O)[C@]12CCC(C)(C)C[C@H]1C1=CC[C@@H]3[C@@]4(C)CC[C@H](O)C(C)(C)[C@@H]4CC[C@@]3(C)[C@]1(C)CC2.Cl
Papp at 100 µM (PepT1 [2]): 41.5 ×10⁻⁶ cm/s | solubility thermodynamic at 24 h [3]: 25.2 µg/mL | IC50 (HepG2): 96.7 µM | IC50 (MCF7): > 150 µM | IC50 (A549 [4]): 68.1 µM | IC50 (HCT-116): > 150 µM

CC[C@H](C)[C@H](N)C(=O)OCCOC(=O)[C@]12CCC(C)(C)C[C@H]1C1=CC[C@@H]3[C@@]4(C)CC[C@H](OC(=O)CO[N+](=O)[O-])C(C)(C)[C@@H]4CC[C@@]3(C)[C@]1(C)CC2
IC50 (HepG2): 16.3 µM | IC50 (MCF7): 74 µM | IC50 (A549 [4]): 17.7 µM | IC50 (HCT-116): > 150 µM

CC(COC(=O)[C@]12CCC(C)(C)C[C@H]1C1=CC[C@@H]3[C@@]4(C)CC[C@H](O)C(C)(C)[C@@H]4CC[C@@]3(C)[C@]1(C)CC2)OC(=O)[C@@H](NC(=O)[C@@H](N)C(C)C)C(C)C (stereo partly drawn)
IC50 (HepG2): 73.1 µM | IC50 (MCF7): > 150 µM | IC50 (A549 [4]): 64.3 µM | IC50 (HCT-116): 133 µM

C[C@H](N)C(=O)OCCOC(=O)[C@]12CCC(C)(C)C[C@H]1C1=CC[C@@H]3[C@@]4(C)CC[C@H](OC(=O)CO[N+](=O)[O-])C(C)(C)[C@@H]4CC[C@@]3(C)[C@]1(C)CC2
IC50 (HepG2): 23.2 µM | IC50 (MCF7): 48 µM | IC50 (A549 [4]): 28.1 µM | IC50 (HCT-116): 32.8 µM

CC(C)[C@H](N)C(=O)N[C@H](C(=O)OCCOC(=O)[C@]12CCC(C)(C)C[C@H]1C1=CC[C@@H]3[C@@]4(C)CC[C@H](OC(=O)CO[N+](=O)[O-])C(C)(C)[C@@H]4CC[C@@]3(C)[C@]1(C)CC2)C(C)C.Cl
Papp at 100 µM (PepT1 [6]): 16.3 ×10⁻⁶ cm/s | Papp at 100 µM (PepT1 [1]): 46 ×10⁻⁶ cm/s | Papp at 100 µM (PepT1 [2]): 23.4 ×10⁻⁶ cm/s | remaining at 2 h [7]: 98.2% | remaining at 2 h [8]: 100% | solubility thermodynamic at 24 h [3]: 22.3 µg/mL | Activity [9]: Active | Activity [10]: 9.9% | viability at 48 h, 50 µM [11]: 60% | IC50 (HepG2): 2.8 µM | IC50 (MCF7): 15 µM | IC50 (A549 [4]): 2.4 µM | IC50 (HCT-116): 15.5 µM | Ratio IC50 (A549 [12]): 7 | Activity [5]: Non-toxic | Activity (L02): Active
